Where a name gives a salt, the structure may show the parent alone.
Molecular target: T1, recombinant guanylate cyclase reporter cell line (Rattus norvegicus, UniProt P19686+P20595)
T1 construct: expressed in transfected cells
T1 sequence (P20595 1-619): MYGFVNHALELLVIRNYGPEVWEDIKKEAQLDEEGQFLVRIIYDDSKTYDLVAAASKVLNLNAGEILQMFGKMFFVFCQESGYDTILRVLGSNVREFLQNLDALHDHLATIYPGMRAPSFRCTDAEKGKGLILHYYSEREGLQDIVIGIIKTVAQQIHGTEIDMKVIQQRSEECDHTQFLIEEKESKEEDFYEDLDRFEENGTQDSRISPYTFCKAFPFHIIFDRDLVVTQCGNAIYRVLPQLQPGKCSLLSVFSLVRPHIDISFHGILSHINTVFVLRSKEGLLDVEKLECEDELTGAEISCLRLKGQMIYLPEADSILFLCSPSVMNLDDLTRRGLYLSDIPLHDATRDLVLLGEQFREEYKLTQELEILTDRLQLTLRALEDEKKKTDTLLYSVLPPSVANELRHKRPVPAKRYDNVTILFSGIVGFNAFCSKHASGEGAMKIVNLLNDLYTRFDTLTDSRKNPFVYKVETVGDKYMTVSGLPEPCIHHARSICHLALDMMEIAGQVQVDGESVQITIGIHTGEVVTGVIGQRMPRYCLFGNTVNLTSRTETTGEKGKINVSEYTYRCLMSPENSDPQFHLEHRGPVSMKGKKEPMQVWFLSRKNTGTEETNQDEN
T1 sequence (P19686 1-690): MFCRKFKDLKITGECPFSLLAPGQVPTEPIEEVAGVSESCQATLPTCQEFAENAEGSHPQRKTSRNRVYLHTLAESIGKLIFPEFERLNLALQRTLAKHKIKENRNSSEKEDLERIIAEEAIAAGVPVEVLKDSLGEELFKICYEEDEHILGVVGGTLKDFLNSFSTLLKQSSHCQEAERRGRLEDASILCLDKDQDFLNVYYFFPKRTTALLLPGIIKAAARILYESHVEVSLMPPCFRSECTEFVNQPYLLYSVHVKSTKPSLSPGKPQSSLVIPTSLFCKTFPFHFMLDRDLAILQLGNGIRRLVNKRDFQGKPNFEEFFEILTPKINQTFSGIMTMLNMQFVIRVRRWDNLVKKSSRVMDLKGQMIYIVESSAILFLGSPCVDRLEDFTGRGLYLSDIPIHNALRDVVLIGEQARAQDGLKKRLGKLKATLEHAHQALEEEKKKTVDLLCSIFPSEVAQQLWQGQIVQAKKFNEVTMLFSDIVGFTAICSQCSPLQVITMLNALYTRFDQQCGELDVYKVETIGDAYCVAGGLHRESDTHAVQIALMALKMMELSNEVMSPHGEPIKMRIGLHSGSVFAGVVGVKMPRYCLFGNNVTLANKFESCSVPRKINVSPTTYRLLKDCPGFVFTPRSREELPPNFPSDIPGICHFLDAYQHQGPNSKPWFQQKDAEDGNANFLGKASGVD
Experiment: B-2. Action on recombinant guanylate cyclase reporter cell line
Format: cell-based
Conditions: MEC = minimal effective concentration; in some cases mean values from individual determinations
In short: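 Rat recombinant guanylate cyclase reporter cell line measures cellular activity. Value reported as MEC (minimal effective concentration), sometimes averaged over individual determinations.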

Row | SMILES | MEC [µM]
1 | Cc1cc(OCc2c(F)cccc2F)c2nc(C)c(C(=O)NCC(C)(N)CCC(F)(F)F)n2c1 (single isomer, unassigned; enantiomer b) [Example 409, ent-N-(2-amino-5,5,5-trifluoro-2-methylpentyl)-8-[(2,6-difluorobenzyl)oxy]-2,6-dimethylimidazo[1,2-a]pyridine-3-carboxamide (Enantiomer B)] | 0.03
2 | Cc1cc(OCc2c(F)cccc2F)c2nc(C)c(C(=O)NC3CCC3(C)N)n2c1 (racemic) [Example 331, rac-N-(2-amino-2-methylcyclobutyl)-8-[(2,6-difluorobenzyl)oxy]-2,6-dimethylimidazo[1,2-a]pyridine-3-carboxamide] | 0.30
3 | Cc1nc2c(OCc3c(F)cccc3F)cc(Cl)cn2c1C(=O)NCC(N)C(C)C (single isomer, unassigned) [Example 212, ent-N-(2-Amino-3-methylbutyl)-6-chloro-8-[(2,6-difluorobenzyl)oxy]-2-methylimidazo[1,2-a]-pyridine-3-carboxamide] | 1.00
4 | Cc1cc(OCc2c(F)cccc2F)c2nc(C)c(C(=O)NC3CCC3(C)N)n2c1 (single isomer, unassigned; enantiomer b) [Example 333, ent-N-[2-amino-2-methylcyclobutyl]-8-[(2,6-difluorobenzyl)oxy]-2,6-dimethylimidazo[1,2-a]pyridine-3-carboxamide (Enantiomer B)] | 1.00
5 | CCCC(C)(N)CNC(=O)c1c(C2CC2)nc2c(OCc3c(F)cccc3F)cc(C)cn12 (stereo not drawn) [Example 322, ent-N-(2-amino-2-methylpentyl)-2-cyclopropyl-8-[(2,6-difluorobenzyl)oxy]-6-methylimidazo[1,2-a]pyridine-3-carboxamide] | 0.30
6 | Cc1cc(OCc2c(F)cccc2F)c2nc(C)c(C(=O)NC3(C)CC3(C)N)n2c1 (racemic) [Example 320, rac-N-(2-amino-1,2-dimethylcyclopropyl)-8-[(2,6-difluorobenzyl)oxy]-2,6-dimethylimidazo[1,2-a]pyridine-3-carboxamide (Racemate)] | 0.30
7 | Cc1nc2c(OCc3c(F)cccc3F)cc(Cl)cn2c1C(=O)NCC(C)(N)C(F)(F)F (racemic) [Example 236, rac-N-(2-Amino-3,3,3-trifluoro-2-methylpropyl)-6-chloro-8-[(2,6-difluorobenzyl)oxy]-2-methylimidazo[1,2-a]pyridine-3-carboxamide] | 0.30
8 | Cc1cc(OCc2c(F)cccc2F)c2nc(C)c(C(=O)NCC3CNCCO3)n2c1 (racemic) [Example 345, rac-8-[(2,6-Difluorobenzyl)oxy]-2,6-dimethyl-N-(morpholin-2-ylmethyl)imidazo[1,2-a]pyridine-3-carboxamide] | 1.00
9 | Cc1cc(OCc2c(F)cccc2F)c2nc(C)c(C(=O)NCC(C)(C)NCCO)n2c1 [Example 349, 8-[(2,6-Difluorobenzyl)oxy]-N-{2-[(2-hydroxyethyl)amino]-2-methylpropyl}-2,6-dimethylimidazo[1,2-a]pyridine-3-carboxamide] | 1.00
10 | Cc1cc(OCc2c(F)cccc2F)c2nc(C)c(C(=O)NC3CNCC(F)(F)C3)n2c1 (racemic) [Example 312, rac-8-[(2,6-difluorobenzyl)oxy]-N-(5,5-difluoropiperidin-3-yl)-2,6-dimethylimidazo[1,2-a]pyridine-3-carboxamide] | 0.30

Results, then the compound that gave them:

Row | MEC [µM] | SMILES
11 | 1.00 | Cc1nc2c(OCc3c(F)cccc3F)cccn2c1C(=O)NCC(C)N1CCOCC1 (single isomer, unassigned; ent-8) [Example 181, ent-8-[(2,6-Difluorobenzyl)oxy]-2-methyl-N-[2-(morpholin-4-yl)propyl]imidazo[1,2-a]pyridine-3-carboxamide]
12 | 0.30 | Cc1nc2c(OCc3c(F)cccc3F)cccn2c1C(=O)NCC(C)(C)N [Example 72, N-(2-Amino-2-methylpropyl)-8-[(2,6-difluorobenzyl)oxy]-2-methylimidazo[1,2-a]pyridine-3-carboxamide]
13 | 0.03 | Cc1nc2c(OCc3c(F)cccc3F)cccn2c1C(=O)NCC(C)(N)CCOCc1ccccc1 (single isomer, unassigned; enantiomer a) [Example 266, ent-N-[2-Amino-4-(benzyloxy)-2-methylbutyl]-8-[(2,6-difluorobenzyl)oxy]-2-methylimidazo[1,2-a]pyridine-3-carboxamide (Enantiomer A)]
14 | 1.00 | Cc1nc2c(OCc3c(F)cccc3F)cccn2c1C(=O)NC(CN)CC(C(F)(F)F)C(F)(F)F (single isomer, unassigned; enantiomer a) [Example 7, ent-N-[1-Amino-5,5,5-trifluoro-4-(trifluoromethyl)pentan-2-yl]-8-[(2,6-difluorobenzyl)oxy]-2-methylimidazo[1,2-a]pyridine-3-carboxamide (Enantiomer A)]
15 | 1.00 | CCCC[C@H](CN1CCCC1)NC(=O)c1c(C)nc2c(OCc3c(F)cccc3F)cccn12 [Example 66, ent-8-[(2,6-difluorobenzyl)oxy]-2-methyl-N-[(2R)-1-(pyrrolidin-1-yl)hexan-2-yl]imidazo[1,2-a]-pyridine-3-carboxamide]
16 | 0.03 | Cc1nc2c(OCc3c(F)cccc3F)cc(C(F)F)cn2c1C(=O)NCC(C)(N)CF (single isomer, unassigned; enantiomer b) [Example 292, ent-N-(2-amino-3-fluoro-2-methylpropyl)-8-[(2,6-difluorobenzyl)oxy]-6-(difluoromethyl)-2-methylimidazo[1,2-a]pyridine-3-carboxamide (Enantiomer B)]
17 | 1.00 | COCC(CN)NC(=O)c1c(C)nc2c(OCc3c(F)cccc3F)cccn12 (single isomer, unassigned) [Example 122, ent-N-(1-Amino-3-methoxypropan-2-yl)-8-[(2,6-difluorobenzyl)oxy]-2-methylimidazo[1,2-a]-pyridine-3-carboxamide Ditrifluoroacetate]
18 | 0.30 | Cc1nc2c(OCc3c(F)cccc3F)cccn2c1C(=O)NC(CN)c1ccc(F)cc1 (single isomer, unassigned; enantiomer b) [Example 10, ent-N-[2-Amino-1-(4-fluorophenyl)ethyl]-8-[(2,6-difluorobenzyl)oxy]-2-methylimidazo[1,2-a]-pyridine-3-carboxamide (Enantiomer B)]
19 | 0.30 | Cc1cc(OCc2c(F)cccc2F)c2nc(C)c(C(=O)NCC(N)C#N)n2c1 (single isomer, unassigned; enantiomer b) [Example 402, ent-N-(2-amino-2-cyanoethyl)-8-[(2,6-difluorobenzyl)oxy]-2,6-dimethylimidazo[1,2-a]pyridine-3-carboxamide (Enantiomer B)]
20 | 0.30 | C#Cc1cc(OCc2c(F)cccc2F)c2nc(C)c(C(=O)NCC(C)(N)CCC)n2c1 (stereo not drawn) [Example 355, ent-N-(2-amino-2-methylpentyl)-8-[(2,6-difluorobenzyl)oxy]-6-ethynyl-2-methylimidazo[1,2-a]pyridine-3-carboxamide Formate]
21 | 1.00 | Cc1cc(OCc2c(F)cccc2F)c2nc(C)c(C(=O)NCC(N)C#N)n2c1 (single isomer, unassigned; enantiomer a) [Example 401, ent-N-(2-amino-2-cyanoethyl)-8-[(2,6-difluorobenzyl)oxy]-2,6-dimethylimidazo[1,2-a]pyridine-3-carboxamide (Enantiomer A)]

Source: patent publication US9624214B2, “Amino-substituted imidazo[1,2-a]pyridinecarboxamides and their use” (BAYER PHARMA AKTIENGESELLSCHAFT, priority 2012, dated 2017)
